In patent US12320799B2, “Methods of measuring signaling pathway activity for selection of therapeutic agents” (Celcuity Inc., priority 2017, dated 2025):

How the values were obtained:
Assay type in all cases: cell-based, human
[1] = tested on: IGFR signaling pathway; assay: CELx multiple pathway test, impedance biosensor cell adhesion, IGF/Linsitinib pair; settings: activator IGF
Description: (§1) Biosensor and transducer: A 96-well impendence E-Plate (ACEA, San Diego, CA) was placed onto an xCELLigence RTCA MP Station impendence biosensor (ACEA, San Diego, CA). The biosensor measured simultaneously the impedance of every well. The change in impedance for a particular well is proportional to the number of cells and type of attachment the cells have with the impedance microplate. Changes in impedance indicate a response to perturbation of these small cell populations. Coatings: The 96-E-Plate were wells were coated with fibronectin and or collagen. Collagen is purchased from Advanced BioMatrix (Carlsbad, CA) and fibronectin from Sigma-Aldrich (St. Louis, MO). Tissue and cell samples: A total of 18 samples of human tumor cells from breast, lung, colon, ovarian, kidney, bladder cancer were studied. For each of these six different cancer types, tumor cell samples from three different patients were tested. Any biomarkers that are used to guide selection of targeted therapy are listed in Table 18 for each patient if they were present. Signaling Pathways activator agent and targeted therapeutic pairs: Eleven different signaling pathways were studied in each human tumor cell sample using […] signaling pathway activator agent and targeted therapeutic pairs. Each of the signaling pathway activator agent and targeted therapeutic pairs affect the same signaling pathway. Each of the signaling pathway activator agents is a well-characterized and specific agonist of its associated signaling pathway and each of the targeted therapeutic agents is a well-characterized and specific antagonist of the same associated signaling pathway. The signaling pathway activator agents and targeted therapeutics used to characterize the activity level of the associated signaling pathway are summarized in Table 16 below:
(§2) Other Reagents: Standard media antibiotics (e.g. penicillin, streptomycin) and other buffers were purchased and used as delivered from ATCC (Manassas, VA, USA) or Life Technologies (Grand Island, NY). Procedure: For each test of a patient cell sample with a pair of signaling pathway activator and targeted therapeutic agents, six wells were seeded with approximately 15,000 cells in 120 uL culture media. Twenty microliters of the targeted therapeutic agent were added to two wells of each patient's cells and 20 microliters of standard media were added to the other four wells for each patient 18 hours in advance of addition of the signaling pathway activator agent. Signaling pathway stimulation was initiated with the addition of 20 ul of the signaling pathway activator agent in the two wells that received a targeted therapeutic agent and in two additional wells for each patient's set of cells without the targeted therapeutic. The impedance recording of attachment and adhesion change was performed at 37° C., 5% C02. Data was recorded on a continuous basis throughout the test, where the data presented is from the initial baseline level of cell attachment compared to the subsequent effects following the targeted therapeutic agent and the signaling pathway activator agent additions on the 18 different patient samples. Results:
(§3) Table 17 presents the results, expressed as an output value, for each of the 167 tests performed using the methods described above. For each of the 18 patient samples, up to 11 different signaling pathways were tested. The output value represents the difference between the amount of cell adhesion change resulting from addition of the signaling pathway activator agent and the amount of cell adhesion change resulting from addition of the targeted therapeutic agent.

[2] = tested on: c-MET/HGF signaling pathway; assay: CELx multiple pathway test, impedance biosensor cell adhesion, HGF/SGX-523 pair; settings: activator HGF
Description: as §1
as §2, with “samples.” for “samples. Results:”
as §3, with “For” for “Table 17 presents the results, expressed as an output value, for each of the 167 tests performed using the methods described above. For”

[3] = tested on: FGFR signaling pathway; assay: CELx multiple pathway test, impedance biosensor cell adhesion, FGF/BGJ398 pair; settings: activator FGF
Description: as §1, §2, §3

[4] = tested on: HER3 signaling pathway; assay: CELx multiple pathway test, impedance biosensor cell adhesion, NRG1/Neratinib pair; settings: activator NRG1
Description: as §1, §2, §3

[5] = tested on: EGFR signaling pathway; assay: CELx multiple pathway test, impedance biosensor cell adhesion, EGF/Neratinib pair; settings: activator EGF
Description: as §1
as §2, with “samples.” for “samples. Results:”
as §3, with “For” for “Table 17 presents the results, expressed as an output value, for each of the 167 tests performed using the methods described above. For”

With `C[C@]1(O)C[C@@H](c2nc(-c3ccc4ccc(-c5ccccc5)nc4c3)c3c(N)nccn32)C1` [Linsitinib] the output value ([1]; C2 breast tumor cells) was 20, the output value ([1]; C21 breast tumor cells) was 69 and the output value ([1]; C23 lung tumor cells) was 32. It also gave an output value ([1]; C24 lung tumor cells) of −61, an output value ([1]; C25 lung tumor cells) of −44 and an output value ([1]; C34 breast tumor cells) of 34. The output value ([1]; C54 ovarian tumor cells) was −8, the output value ([1]; C62 colorectal tumor cells) was 6 and the output value ([1]; C69 ovarian tumor cells) was −111. The output value ([1]; C71 colorectal tumor cells) was −2, the output value ([1]; C72 colorectal tumor cells) was −22 and the output value ([1]; C77 ovarian tumor cells) was 56. For the same compound, the output value ([1]; C81 bladder tumor cells) was 351, the output value ([1]; C82 bladder tumor cells) was 21 and the output value ([1]; C87 bladder tumor cells) was 210. For the same compound, the output value ([1]; C88 kidney tumor cells) was 143, the output value ([1]; C90 kidney tumor cells) was −607 and the output value ([1]; C92 kidney tumor cells) was 73.
For `Cn1cc(-c2ccc3nnc(Sc4ccc5ncccc5c4)n3n2)cn1` [SGX-523], the output value ([2]; C2 breast tumor cells) was 0, the output value ([2]; C21 breast tumor cells) was 222 and the output value ([2]; C23 lung tumor cells) was 469. For the same compound, the output value ([2]; C24 lung tumor cells) was 78, the output value ([2]; C25 lung tumor cells) was 132 and the output value ([2]; C34 breast tumor cells) was 6. For the same compound, the output value ([2]; C54 ovarian tumor cells) was 123, the output value ([2]; C62 colorectal tumor cells) was −6 and the output value ([2]; C69 ovarian tumor cells) was −27. It also gave an output value ([2]; C71 colorectal tumor cells) of 53, an output value ([2]; C72 colorectal tumor cells) of −110 and an output value ([2]; C77 ovarian tumor cells) of 227. It also gave an output value ([2]; C81 bladder tumor cells) of 419, an output value ([2]; C82 bladder tumor cells) of 41 and an output value ([2]; C87 bladder tumor cells) of 28. The output value ([2]; C88 kidney tumor cells) was −13, the output value ([2]; C90 kidney tumor cells) was 368 and the output value ([2]; C92 kidney tumor cells) was 154.
`CCN1CCN(c2ccc(Nc3cc(N(C)C(=O)Nc4c(Cl)c(OC)cc(OC)c4Cl)ncn3)cc2)CC1` [BGJ398] gave an output value ([3]; C2 breast tumor cells) of 14, an output value ([3]; C21 breast tumor cells) of 15 and an output value ([3]; C23 lung tumor cells) of 1. For the same compound, the output value ([3]; C24 lung tumor cells) was −6, the output value ([3]; C25 lung tumor cells) was 14 and the output value ([3]; C34 breast tumor cells) was 33. For the same compound, the output value ([3]; C54 ovarian tumor cells) was 65, the output value ([3]; C62 colorectal tumor cells) was 4 and the output value ([3]; C69 ovarian tumor cells) was −19. The output value ([3]; C71 colorectal tumor cells) was 43, the output value ([3]; C72 colorectal tumor cells) was −20 and the output value ([3]; C77 ovarian tumor cells) was 12. For the same compound, the output value ([3]; C81 bladder tumor cells) was 75, the output value ([3]; C82 bladder tumor cells) was −94 and the output value ([3]; C87 bladder tumor cells) was 8. For the same compound, the output value ([3]; C88 kidney tumor cells) was 251, the output value ([3]; C90 kidney tumor cells) was −47 and the output value ([3]; C92 kidney tumor cells) was 6.
With `CCOc1cc2ncc(C#N)c(Nc3ccc(OCc4ccccn4)c(Cl)c3)c2cc1NC(=O)/C=C/CN(C)C` [Neratinib] the output value ([4]; C2 breast tumor cells) was −1, the output value ([4]; C21 breast tumor cells) was 234 and the output value ([4]; C23 lung tumor cells) was 373. The output value ([4]; C24 lung tumor cells) was 194, the output value ([4]; C25 lung tumor cells) was 116 and the output value ([4]; C34 breast tumor cells) was 4. For the same compound, the output value ([4]; C54 ovarian tumor cells) was 244, the output value ([4]; C62 colorectal tumor cells) was 2 and the output value ([4]; C69 ovarian tumor cells) was 178. For the same compound, the output value ([4]; C71 colorectal tumor cells) was 28, the output value ([4]; C72 colorectal tumor cells) was 5 and the output value ([4]; C77 ovarian tumor cells) was 128. The output value ([4]; C81 bladder tumor cells) was 13, the output value ([4]; C82 bladder tumor cells) was 31 and the output value ([4]; C87 bladder tumor cells) was 10. For the same compound, the output value ([4]; C88 kidney tumor cells) was 5, the output value ([4]; C90 kidney tumor cells) was −32 and the output value ([4]; C92 kidney tumor cells) was 36. The output value ([5]; C2 breast tumor cells) was −19, the output value ([5]; C21 breast tumor cells) was 503 and the output value ([5]; C23 lung tumor cells) was 298. The output value ([5]; C24 lung tumor cells) was 245, the output value ([5]; C25 lung tumor cells) was 209 and the output value ([5]; C34 breast tumor cells) was 247. The output value ([5]; C54 ovarian tumor cells) was 654, the output value ([5]; C62 colorectal tumor cells) was 28 and the output value ([5]; C69 ovarian tumor cells) was 614. It also gave an output value ([5]; C71 colorectal tumor cells) of 179, an output value ([5]; C72 colorectal tumor cells) of 5 and an output value ([5]; C77 ovarian tumor cells) of −78. It also gave an output value ([5]; C81 bladder tumor cells) of 344, an output value ([5]; C82 bladder tumor cells) of 345 and an output value ([5]; C87 bladder tumor cells) of 334. The output value ([5]; C88 kidney tumor cells) was −67, the output value ([5]; C90 kidney tumor cells) was 150 and the output value ([5]; C92 kidney tumor cells) was 290.
